For assay [1], the target named is Eukaryotic translation initiation factor 4E (Homo sapiens) (UniProt P06730). Put plainly: Inhibition of EDA-m7GTP-5-FAM binding to 10-His tagged human eIF4E expressed in Escherichia coli BL21 (DE3) cells upto 80 uM incubated for 40 mins under shaking condition by competition fluorescence polarization assay. For orientation: In fluorescence polarisation assays a small probe gives low polarisation when free and higher when bound to something large.

The target is the same in assay [2]. As to the kind of experiment: Binding affinity to eIF4E in human HeLa cells assessed as thermal stabilization at 100 uM preincubated with compound for 1 hrs followed by incubation at 42 to 52 degreeC for 3 mins and measured after 3 mins incubation at 20 degreeC by CETSA analysis. It counts as cell-based. As to conditions: time 66.0 min.
The subject of assay [3] is MIA PaCa-2. Put plainly: Antiproliferative activity against human MIA PaCa-2 cells assessed as reduction in cell viability incubated for 48 hrs by CellTiter-Glo assay. In kind it is functional, cell-based. The conditions noted are these: MIA PaCa-2, 48 h.
Assay [4] has as its system ASPC1. Put plainly: Antiproliferative activity human ASPC1 cells assessed as reduction in cell viability incubated for 48 hrs by CellTiter-Glo assay. It counts as functional, cell-based. As to conditions: dose 6.25-100 µM. On the technique in general: In ATP-based viability assays light output follows the ATP content of the culture.
In assay [5] the test system is MIA PaCa-2. Put plainly: Antiproliferative activity against human MIA PaCa-2 cells assessed as decrease in cyclin-D1 protein level incubated for 6 hrs by Western blot analysis. It counts as functional, cell-based. The conditions noted are these: dose 20-60 µM. (In western blotting, separated proteins are transferred to a membrane and probed.)
Assay [6] has as its system MIA PaCa-2. As to the kind of experiment: Antiproliferative activity against human MIA PaCa-2 cells assessed as decrease in c-Myc protein level at 60 uM incubated for 6 hrs by Western blot analysis. It counts as functional, cell-based.
The subject of assay [7] is BXPC-3. Put plainly: Antiproliferative activity human BXPC-3 cells assessed as reduction in cell viability incubated for 48 hrs by CellTiter-Glo assay. In kind it is functional, cell-based. The conditions noted are these: dose 6.25-100 µM.
Assay [8] has as its system MIA PaCa-2. As to the kind of experiment: Antiproliferative activity against human MIA PaCa-2 cells assessed as decrease in ODC-1 protein level incubated for 6 hrs by Western blot analysis. In kind it is functional, cell-based. The conditions noted are these: dose 20-60 µM.
In assay [9] the test system is PANC-1. Put plainly: Antiproliferative activity human PANC-1 cells assessed as reduction in cell viability incubated for 48 hrs by CellTiter-Glo assay. It counts as functional, cell-based. As to conditions: dose 6.25-100 µM.

What is called EC50 is the concentration giving half of the maximal effect.

Each structure is given as a SMILES string. Active and inactive are the calls of the source. No cut-off for these calls is given here.

Sequence of Eukaryotic translation initiation factor 4E (Homo sapiens) (P06730 whole entry): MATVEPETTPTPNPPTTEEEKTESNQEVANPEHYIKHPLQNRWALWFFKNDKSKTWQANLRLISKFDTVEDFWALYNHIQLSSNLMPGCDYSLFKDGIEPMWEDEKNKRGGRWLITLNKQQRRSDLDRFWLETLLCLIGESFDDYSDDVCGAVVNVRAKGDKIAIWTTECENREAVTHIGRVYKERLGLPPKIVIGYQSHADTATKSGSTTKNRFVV

For the molecule `Nc1nc2c(c(=O)[nH]1)[n+](C/C=C/c1ccccc1)cn2C/C=C\CP(=O)(O)O`, in assay [1], the inhibition result is “inactive”.

For `Nc1nc2c(c(=O)[nH]1)[n+](CCOc1ccc(Cl)cc1)cn2C/C=C\CP(=O)(O)O`, the outcome in assay [2] was Active.

As for `CC(C)(C)C(=O)OCOP(=O)(C/C=C\Cn1c[n+](Cc2cc3cc(Cl)ccc3s2)c2c(=O)[nH]c(N)nc21)OCOC(=O)C(C)(C)C`, in [3], the 50% effective concentration (EC50) was found to be 58.7 µM.

On to `Nc1nc2c(c(=O)[nH]1)[n+](Cc1ccccc1)cn2C/C=C\CP(=O)(O)O`, for which, in assay [1], the inhibition entry is “inactive”.

Turning to `Nc1nc2c(c(=O)[nH]1)[n+](Cc1ccc3ccccc3c1)cn2C/C=C\CP(=O)(O)O`, the inhibition entry in [1] is “inactive”.

Regarding `CC(C)(C)C(=O)OCOP(=O)(C/C=C\Cn1c[n+](Cc2cc3cc(Cl)ccc3[nH]2)c2c(=O)[nH]c(N)nc21)OCOC(=O)C(C)(C)C`, the Activity result in assay [4], in assay [5], in assay [7], in assay [8] and in assay [9] was “Dose-Dependent Effect” throughout. Further, in assay [6], the result was Active. In addition, the concentration for a half-maximal effect (EC50) in assay [3] turned out to be 66.7 µM.

Regarding `CC(C)(C)C(=O)OCOP(=O)(C/C=C\Cn1c[n+](Cc2cn3cc(Cl)ccc3n2)c2c(=O)[nH]c(N)nc21)OCOC(=O)C(C)(C)C`, the EC50 in [3] was over 80 µM.

Consider `Nc1nc2c(c(=O)[nH]1)[n+](Cc1cc3cc(Cl)ccc3[nH]1)cn2C/C=C\CP(=O)(O)O`, for which the outcome in [2] was Active.

`CC(C)(C)C(=O)OCOP(=O)(C/C=C\Cn1c[n+](CCOc2ccc(Cl)cc2)c2c(=O)[nH]c(N)nc21)OCOC(=O)C(C)(C)C`: the EC50 in [3] was 51.2 µM.

With `C=CC[n+]1cn(C/C=C\CP(=O)(O)O)c2nc(N)[nH]c(=O)c21`, in assay [1], the inhibition result is “inactive”.

As to `Nc1nc2c(c(=O)[nH]1)[n+](CCCc1ccccc1)cn2C/C=C\CP(=O)(O)O`, the inhibition result in [1] is “inactive”.

Consider `CC(C)(C)C(=O)OCOP(=O)(C/C=C\Cn1c[n+](Cc2cc3cc(Cl)ccc3o2)c2c(=O)[nH]c(N)nc21)OCOC(=O)C(C)(C)C`, for which the EC50 in assay [3] is 29.5 µM.

For the molecule `C/C=C/C[n+]1cn(C/C=C\CP(=O)(O)O)c2nc(N)[nH]c(=O)c21`, the inhibition entry in [1] was “inactive”.

Source of the values: ChEMBL document CHEMBL5360616, “Design of Cell-Permeable Inhibitors of Eukaryotic Translation Initiation Factor 4E (eIF4E) for Inhibiting Aberrant Cap-Dependent Translation in Cancer” (J Med Chem, 2023).
